# Data published in patent US8410178B2, “CIS 3,4-dihydroxy-2-(3-methylbutanoyl)-5-(3-methylbutyl)-4-(4-methylpentanoyl)cyclopent-2-en-1-derivatives, substantially enantiomerically pure compositions and methods” (KinDex Therapeutics, LLC, priority 2010, dated 2013).
# Where two headings read alike, the source gives them in different places.
# What was measured:
# GPR120 = target: T1, GPR120 (Homo sapiens, UniProt Q5NUL3); test: GPR120 activity, intracellular calcium response in CHO-K1/GPR120/Gα15 cells; format: cell-based
# T1 sequence (Q5NUL3 1-361): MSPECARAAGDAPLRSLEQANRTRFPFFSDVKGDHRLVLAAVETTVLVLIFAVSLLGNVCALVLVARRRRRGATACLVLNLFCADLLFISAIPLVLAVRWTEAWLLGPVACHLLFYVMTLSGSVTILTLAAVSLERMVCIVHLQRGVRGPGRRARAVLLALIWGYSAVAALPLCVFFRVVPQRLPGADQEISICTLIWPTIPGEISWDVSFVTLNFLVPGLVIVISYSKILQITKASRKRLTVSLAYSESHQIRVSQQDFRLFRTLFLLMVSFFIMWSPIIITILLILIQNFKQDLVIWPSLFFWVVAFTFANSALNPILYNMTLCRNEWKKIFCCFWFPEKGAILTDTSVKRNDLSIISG
# Method: GPR120 activity was measured by intracellular calcium response. CHO-K1/GPR120/Gα15 cells were regularly passaged to maintain optimal cell health and cultured in Ham's F12 supplemented with 10% fetal bovine serum, 200 μg/mL zeocin, and 100 μg/mL hygromycin. Cells were seeded in a 384-well black-wall, clear-bottom plate at a density of 20,000 cell per well in 20 μL of growth medium 18 hours prior to the start of the experiment, and maintained at 37° C./5% CO2. Cells were loaded with calcium-4, and baseline fluorescence readings were obtained from 1 second to 20 seconds using a fluorescent imaging plate reader (FLIPR). At 20 seconds, (+)-KDT501 (5× final concentration) was added to the reading plate, and the fluorescence signal was monitored for 100 seconds (21 seconds to 120 seconds). α-linolenic acid (LA), eicosapentaenoic acid (EPA), and docosahexaenoic acid (DHA) were used as controls. Data acquisition and analysis was performed using ScreenWorks (version 3.1) and exported to Excel. The average fluorescence value for the first 20 seconds was calculated as the baseline reading. The relative fluorescent unit (ΔRFU) intensity values were calculated with the maximal fluorescent units (21 s to 120 s), subtracting the baseline reading. Data analysis wizard written by GenScript was used to analyze EC50. Dose response curves of antagonist were fitted using the GraphPad Prism 4 four parameter logistic equation Y=Bottom+(Top−Bottom)/(1+10^((LogIC50−X)*HillSlope)), where X is the logarithm of concentration and Y is response.
# PPARγ = target: T2, PPARγ (Homo sapiens, UniProt P37231); test: PPARγ luciferase reporter assay; format: cell-based; conditions: reporter cells, 20 hours
# T2 sequence (P37231 1-505): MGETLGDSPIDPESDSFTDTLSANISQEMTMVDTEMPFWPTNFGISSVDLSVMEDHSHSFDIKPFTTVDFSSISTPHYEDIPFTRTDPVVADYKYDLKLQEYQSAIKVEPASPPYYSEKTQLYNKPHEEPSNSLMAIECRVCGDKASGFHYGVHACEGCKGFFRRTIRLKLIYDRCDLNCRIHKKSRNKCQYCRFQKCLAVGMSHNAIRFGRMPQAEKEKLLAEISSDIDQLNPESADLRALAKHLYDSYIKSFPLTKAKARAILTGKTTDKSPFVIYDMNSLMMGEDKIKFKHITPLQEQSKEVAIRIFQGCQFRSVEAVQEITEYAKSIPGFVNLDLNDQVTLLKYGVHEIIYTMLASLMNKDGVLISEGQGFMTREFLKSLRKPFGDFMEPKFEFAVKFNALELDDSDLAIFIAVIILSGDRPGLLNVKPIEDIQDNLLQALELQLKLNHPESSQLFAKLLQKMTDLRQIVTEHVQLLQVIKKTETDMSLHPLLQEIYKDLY
# Method: The functional effect of (+)-KDT501 on PPARα, PPARδ, and PPARγ activity was evaluated using a PPAR reporter assay (INDIGO Biosciences, PA). This assay utilizes non-human mammalian cells engineered to provide constitutive high level expression of PPARα, PPARδ, or PPARγ and containing a luciferase report gene specific to the appropriate PPAR. Following activation by agonist binding, PPAR induces expression of the luciferase reporter gene. Luciferase activity therefore provides a surrogate for measuring PPAR activity in agonist-treated cells.
# Reporter cells were plated on a 96-well plate at 100 μL per well, and 100 μL of (+)-KDT501 at various final concentrations (25, 12.5, 6.25, 3.125, 1.56 and 0.78 μM) was added to each well. […] 0.1% DMSO was also used as a negative control for each assay. Plates are incubated for 20 hours in a humidified incubator at 37° C. and 5% CO2. After incubation, cell medium was discarded and the cells were treated with 100 μL of luciferase detection reagent for 15 minutes. Plates were analyzed using a luminometer (Victor2, Perkin Elmer). Average relative light unit (RLU) and standard deviation were analyzed using GraphPad Prism.
# The PPAR activity assays were repeated as described above using both (+)-KDT501(12.5, 6.25, 3.125, 1.56, and 0.78 μM) and (−)-KDT501 (25, 12.5, 6.25, 3.125, 1.56, and 0.78 μM).
# [1] = tested on: Zucker diabetic fatty (ZDF) rats; test: Glucose and triglyceride levels in a rat diabetes model; format: in vivo; conditions: 200 mg/kg orally twice a day
# Method: 64 six-week-old male Zucker diabetic fatty (ZDF) rats with glucose levels of 175-300 mg/dL were randomized and divided into eight dosing groups: 1) vehicle only (0.5% methylcellulose (w/v), 0.2% Tween 80 (w/v); negative control), 2) (+)-KDT501 25 mg/kg, 3) (+)-KDT501 50 mg/kg, 4) (+)-KDT501 100 mg/kg, 5) (+)-KDT501 200 mg/kg, 6) metformin 200 mg/kg (positive control), 7) metformin 200 mg/kg and (+)-KDT501 100 mg/kg, and 8) pioglitazone 30 mg/kg (positive control). Drugs were administered orally twice a day for 33 days.
# Animals were weighed at randomization and once per week thereafter, with administration dosages calculated based on the most recent body weight measurements. Blood samples were collected by tail bleed three days prior to randomization, at randomization, and at days 15 and 29 after the start of treatment. These blood samples were used to perform whole blood glucose evaluations using a glucometer, as well as to measure blood triglyceride levels. Body composition was tested by qNMR on days 2 and 29 after the start of treatment. An oral glucose tolerance test (OGTT) was performed on days 31 and 32 after the start of treatment. Rats underwent an overnight fast prior to OGTT, and tail bleeds for glucose and insulin were performed pre-glucose bolus and at 15, 30, 60, 90, and 120 minutes post-glucose bolus. The glucose bolus was 2 g dextrose/kg of body weight. On day 33, a cardiac puncture was performed for PK analysis.
# [2] = tested on: diet induced obese (DIO) mice; test: Glucose, insulin, HbA1C and fat mass in high fat diet-induced obesity (DIO) mouse model; format: in vivo; conditions: 200 mg/kg orally twice a day
# Method: 14 week-old male mice were randomized and divided into seven dosing groups with 16 animals in each group: 1) vehicle only (0.5% methylcellulose (w/v), 0.2% Tween 80 (w/v); negative control), 2) (+)-KDT501 25 mg/kg, 3) (+)-KDT501 50 mg/kg, 4) (+)-KDT501 100 mg/kg, 5) (+)-KDT501 200 mg/kg, 6) metformin 200 mg/kg (positive control), and 7) pioglitazone 30 mg/kg (positive control). Drugs were administered orally twice a day for 30 days.
# Animals were weighed at randomization and once per week thereafter, with administration dosages calculated based on the most recent body weight measurements. The mice were maintained on a high fat diet (40% Kcal) (TD95217; prepared by Covance Laboratories, Greenfield, Ind.). Body composition was tested by qNMR on days −5 and 28 after the start of treatment. […]. An oral glucose tolerance test (OGTT) was performed on day 30 after the start of treatment. Mice underwent an overnight fast prior to OGTT, and tail bleeds for glucose and insulin were performed pre-glucose bolus and at 15, 30, 60, 90, and 120 minutes post-glucose bolus. The glucose bolus was 2 g dextrose/kg of body weight. OGTT results were evaluated by area under the curve (AUC) measurements and Dunnett's test.
# [3] = CHO-K1/GPR120/Gα15 cells, calcium response, read-out: GPR120 agonistic activity EC50
structure (smiles),measurement,setting,value
"CC/C=C\C/C=C\C/C=C\CCCCCCCC(=O)O [α-LA, α-linolenic acid]",EC50,GPR120,36.1 µM
"CC/C=C\C/C=C\C/C=C\C/C=C\C/C=C\C/C=C\CCC(=O)O [DHA, docosahexaenoic acid]",EC50,GPR120; [3],35.3 µM
"CCCc1nc2c(C)cc(-c3nc4ccccc4n3C)cc2n1Cc1ccc(-c2ccccc2C(=O)O)cc1 [Telmisartan, telmisartan, reference compound]",PPARγ activity,PPARγ,increased PPARγ activity
"CN(C)C(=N)N=C(N)N [metformin, reference compound]",whole blood glucose levels,[1],slight increase
same,triglyceride levels,[1]; days 15 and 29,increase
same,HbA1C,"[2]; day 29, versus vehicle-only",significant difference
same,blood glucose levels from the OGTT,[2]; day 30,significant decrease
same,insulin levels from the OGTT,[2]; day 30,significant decrease
same,fat mass,[2]; qNMR day 28,reduction in fat mass
"CC/C=C\C/C=C\C/C=C\C/C=C\C/C=C\CCCC(=O)O [EPA, eicosapentaenoic acid]",EC50,GPR120; [3],116 µM
